# Measurements published in US5302609A, “Treatment of diabetic nephropathy” (The Regents of the University of Michigan, priority 1992, dated 1994).
# Read-outs that look alike come from different tables or passages of the source.
# Key:
# [1] = 100 mg/kg, cited from earlier work
# [2] = tested on: Madin-Darby canine kidney (MDCK) cells; conditions: Shayman et al. 1991; cited from earlier work
# [3] = tested on: non-diabetic control male rats; test: PDMP treatment of non-diabetic control rats; assay type: in vivo, rat
# Description: (§1) Because there is gender specific expression of renal GSLs, only male rats were used. Shukla, A. et al., am. J. Physiol. 262: F24-F29 (1992). Male rats were fed a standard pellet laboratory chow and were provided with water ad libitum. Diabetes was induced by the administration of streptozotocin (80 mg/kg i.p.) dissolved in 10 mM Na citrate, pH 5.5. Controls were injected with buffer alone. Animals were provided with immediate access to food. Blood was obtained from the tail vein and blood glucose levels were determined with a Beckman glucose analyzer 48 h following the injection and at the time of organ resection. […] Therefore only animals with blood glucose concentrations between 13.5 and 32 mM were utilized. At the end of the experimental period, the animals were weighted, anesthetized with ether, and their kidneys removed and weighed. For UDP-Glc measurements, the kidneys were frozen in liquid nitrogen immediately following removal.
# (§2) The GlcCer synthase inhibitor PDMP was administered as the DL-hydrochlorideto both diabetic and control animals 14 days following the induction of diabetes with streptozotocin (see Table IV results). […] See Shukla, A. et al., J. Lipid. Res. 32:713-722 (1991). The piperonyl butoxide was prepared by dissolution in corn oil at a concentration of 150 mg/ml oil. The butoxide solution was administered intraperitoneally prior to injection of PDMP. On the first day of treatment this was given 4 h before PDMP treatment; on days 2 to 4 of treatment it was administered just prior to the PDMP injection. PDMP was prepared as an emulsion with the detergent Myrj 52 in normal saline, buffered with sodium acetate. The final concentrations of PDMP, Myrj 52 and sodium acetate in mg/ml were 6, 12, and 8 respectively. The PDMP was given intraperitoneally as a dose of 100 mg/kg body weight.
# (§3) Glomerular volumes were measured on paraffin sections of kidney fixed in formalin and stained with periodic acid Schiff reagent. The measurements required the determination of the mean glomerular random cross sectional area (A(G)). Glomerular areas were measured using a Javelin Chromachip camera (Javelin Electronics, Torrance, Calif.) attached to an Olympus BH-2 microscope interfaced with a Macintosh II computer containing an Image Capture 2 frame grabber (Scion Corp., Walkerville, Md.) and image 1.38B14 software (NIH Public Software, Bethesda, Md.). Glomerular volumes were derived by the method described in Weibel "Stereological Methods. Practical Methods for Biological Morphometry," (academic Press, London) p. 44-45 (1979) as applied by Hirose, K. et al., Kidney Int. 21:689-695 (1982).
# (§4) To determine whether the increase in glucolipid formation in diabetes was functionally important, the following experiment was performed. One group of animals was made diabetic with streptozotocin, and the other group received vehicle alone. After two weeks, the control and diabetic groups were divided according to the weights of the rats. Half of the non-diabetic and half of the diabetic animals received DL-threo-PDMP, which is the racemic mixture of the compound of the Formula I where n is 8. The control non-diabetic and diabetic groups were pair fed and received vehicle alone. After 4 days of treatment the animals were weighed and sacrificed. In Table V, the data are expressed as the mean ± S.D. All animals received the cytochrome P450 inhibitor piperonyl butoxide (600 mg/kg) intraperitoneally. Treated control and diabetic animals received DL-threo-PDMP.
# [4] = tested on: streptozotocin-induced diabetic male rats; test: PDMP treatment of streptozotocin diabetic rats (renal hypertrophy); assay type: in vivo, rat
# Description: as §1, §2, §3, §4
# [5] = in vivo
# [6] = Control + PDMP, n=11, DL-threo-PDMP 100 mg/kg i.p. 4 days with piperonyl butoxide, mean ± S.D.
# [7] = Diabetic + PDMP, n=7, DL-threo-PDMP 100 mg/kg i.p. 4 days with piperonyl butoxide, mean ± S.D.
SMILES,half life of PDMP ([1]; animals exposed to the mixed function oxidase inhibitor PB) [h],half life of PDMP ([1]; without piperonyl butoxide (PB)) [h],endogenous glycosphingolipid content [2],"Body Weight ([3]; Control + PDMP, n=11, DL-threo-PDMP 100 mg/kg i.p. 4 days with piperonyl butoxide 600 mg/kg i.p., mean ± S.D.) [g]","BUN [3, 6] [mg/dL]","Kidney Weight [3, 6] [g]","glomerular size ([3]; morphometric analysis, five kidneys per group, non-diabetic rats)","Creatinine ([3]; serum, Control + PDMP, n=11, DL-threo-PDMP 100 mg/kg i.p. 4 days with piperonyl butoxide, mean ± S.D.)","kidney weights of PDMP-treated diabetic animals compared with untreated diabetic animals ([4]; 4 days of treatment, animals hyperglycemic)","Body Weight ([4]; Diabetic + PDMP, n=7, DL-threo-PDMP 100 mg/kg i.p. 4 days from 14 days after streptozotocin, with piperonyl butoxide 600 mg/kg i.p., mean ± S.D.) [g]","BUN [4, 7] [mg/dL]","Kidney Weight [4, 7] [g]","glomerular volumes compared with control groups ([4]; morphometric analysis, five kidneys per group, diabetic animals treated with PDMP)","renal histology (drug-induced toxicity) ([4]; periodic acid Schiff stained kidney sections: acute tubular necrosis, acute or chronic inflammation, glomerular pathology)","Creatinine ([4]; serum, Diabetic + PDMP, n=7, DL-threo-PDMP 100 mg/kg i.p. 4 days with piperonyl butoxide, mean ± S.D.)",effect on renal growth or function [5]
"CCCCCCCCCC(=O)N[C@H](CN1CCOCC1)[C@H](O)c1ccccc1 (relative stereo) [PDMP, 1-phenyl-2-decanoylamino-3-morpholino-1-propanol]",4,1,decreased,238 ± 21,13 ± 3.2,2.25 ± 0.27,no effect,0.31 ± 0.09,significantly lower,200 ± 11,28 ± 6.4,2.32 ± 0.19,not significantly different,"no evidence of acute tubular necrosis, acute or chronic inflammation, or glomerular pathology",0.23 ± 0.05,–
"CCCCOCCOCCOCc1cc2c(cc1CCC)OCO2 [PB, piperonyl butoxide]",–,–,–,–,–,–,–,–,–,–,–,–,–,–,–,no effect
"OC1C(O)C(O)C2OC2C1O (centres unmarked) [conduritol B epoxide, reference compound]",–,–,increased,–,–,–,–,–,–,–,–,–,–,–,–,–
